Results: patent publication US20100069302A1, “SPECIFIC THERAPY AND MEDICAMENT USING INTEGRIN LIGANDS FOR TREATING CANCER” (priority 2007, published 2010)
Several values for one entry are separate records, joined by “and”; a condition that tells them apart may be missing. Identical values can stand only once. Entries after “also recorded” stand apart in the source; their conditions may differ.

How the values were obtained:
[1] = test system: U251 human glioblastoma cells; test: Rat orthotopic glioblastoma model radiotherapy, cilengitide scheduling experiments; assay type: in vivo, NIH mu nude rats; details: for Days Post Implant (survival): listed as Rt + EMD, 4 mg/kg
Method: NIH mu nude rats are anaesthetized, restrained, and injected intracerebrally 1 mm retro orbitally, 3 mm to the right of the bregma and at a depth of 2.5 mm with 5×10E5 U251 human glioblastoma cells suspended in 10 ul of culture medium, using a #2701 Hamilton syringe fitted with a 26 gauge needle, essentially as previously described (Engebraaten et al., 1999). After 14 days, cilengitide (4 mg/kg) is given as an intraperitoneal bolus in PBS, at various time (8 h, 4 h, 2 h, 1 h) prior to a single treatment with single, collimated, dorsal-ventral beam of 6 MV x-rays, so that 95-100% of the central axis dose of 25 Gy hit the tumor volume (Kim et al., 1999). Each of the 7 subsequent days the animals also received an identical i.p. bolus of cilengitide. The animals are maintained under ad libitum food and drink until they become moribund, or are sampled for tissue analysis (in the t-4 and t-8 h groups, where the animals are healthy past 230 days post tumor injection). A Kaplan-Meier survival curve is calculated and plotted (FIG. 1) from the raw data (Table 1). All animals in the RT monotherapy group died by 120 d.

[2] = test system: Endothelial Cells (HUVEC); test: Proliferation assay (vitronectin-coated plates, Alamar Blue); assay type: cell-based; details: 72 hours, concentration held constant in combination with chemotherapeutic agents, read-out: constant EC50 concentration of alpha V integrin blocker
Method: HUVEC-DMEM containing 10% FCS (heat-inactivated) plus 2 mM glutamine and 1 mM sodium pyruvate.
(§1) Briefly, 2.5×10e4 cells/well in RPMI containing 0.5% BSA and 25 mM Hepes pH 7.4 attached to non-tissue culture treated 96-well plates coated with serially diluted vitronectin, fibronectin, fibrinogen and collagen I for 60 minutes at 37° C. After washing to remove unbound cells the relative cell number is determined by incubation with hexosaminidase substrate. The colormetric reaction is read at 405 nm in a Genios plate reader (SLT). Proliferation assay Non-tissue cultures treated 96 well plates are coated using 100 ul/well of a 2 ug/ml vitronectin solution in PBS incubated overnight at 4° C. Cells are plated at 5×10e3 in 100 ul cell culture medium (as described above for each cell line). […] Plates are incubated for 72 hours, after which relative cell number is determined by the addition of 20 ul/well Alamar Blue (Resazurin) (Nakayama et al. 1997). After 4 hours of incubation at 37° C. relative fluorescent intensity is read in a Genios plate reader (SLT) at 535/590 nm (excitation/emission).
(§2) Points are run in triplicate. Reagent blanks, containing media plus colormetric reagent without cells, are run on each plate. Blank values are subtracted from test values and are routinely 5-10% of uninhibited control values. […]

NSCLC (A549) = test: as above; assay type: cell-based; details: A549, 72 hours; concentration held constant in combination with chemotherapeutic agents; read-out: constant EC50 concentration of alpha V integrin blocker
Method: A549-DMEM containing 10% FCS (heat-inactivated) plus 2 mM glutamine,
as §1, §2

[3] = test system: patients with recurrent glioblastoma (GBM); test: Phase IIa trial of cilengitide single agent therapy in patients with recurrent glioblastoma; assay type: in vivo, human
Method: Background: The present phase IIa study was designed to evaluate the safety, toxicity, and clinical activity of the cyclic RGD pentapeptide cilengitide ((=cyclo-(Arg-Gly-Asp-DPhe-NMe-Val)), an inhibitor of integrins αvβ3 and αvβ5, as a single agent at doses of 500 and 2000 mg in patients (pts) with recurrent glioblastoma (GBM).
Methods: In this multicenter, open-label, randomized, uncontrolled study, pts with GBM and measurable disease that had relapsed after previous therapy with temozolomide and radiotherapy were randomized to receive cilengitide at doses of either 500 mg or 2000 mg i.v., 2×/week, until progression.
Histopathology diagnosis and MRI imaging were subject to independent blinded review. The primary endpoint was Progression Free Survival (PFS) at 6 months (mths). Secondary endpoints included response, survival, time to disease progression, safety, tolerability and pharmacokinetics.

various brain tumors = details: cited from earlier work
[4] = test system: patients with newly diagnosed glioblastoma (GBM); test: Phase I/IIa trial of cilengitide and temozolomide with concomitant radiotherapy, then maintenance, in newly diagnosed glioblastoma; assay type: in vivo, human
Method: Patients and methods: Fifty-two pts (PS 0-1: 92%, 2: 8%; median age 57 yrs) after biopsy (n=9/17%) or tumor resection (n=43/83%) were treated with standard TMZ/RT (Stupp et al. NEJM 2005). In addition Cilengitide (500 mg i.v., 2×/week) was started one week before TMZ/RT and given throughout for the duration of chemotherapy or until progression. Primary endpoint was progression free survival rate at 6 months (target: 65%). Patients were followed with MRI every 2 months. Histopathologic diagnosis and MRI imaging were independently reviewed, MGMT promoter methylation status was assessed in 45 (86.5%) pts.

SMILES: CC(C)[C@H]1C(=O)N[C@@H](CCCN=C(N)N)C(=O)NCC(=O)N[C@@H](CC(=O)O)C(=O)N[C@H](Cc2ccccc2)C(=O)N1C [Cilengitide, cyclo-(Arg-Gly-Asp-DPhe-NMeVal)]
- Days Post Implant (survival) ([1]; cilengitide bolus 4 mg/kg i.p. 1 hour pre-irradiation (Rt 25 Gy) plus 7 daily boluses, all Sick (moribund)): 112 days and 113 days and 130 days and 141 days
- Days Post Implant (survival) ([1]; cilengitide bolus 4 mg/kg i.p. 2 hours pre-irradiation (Rt 25 Gy) plus 7 daily boluses, all Sick (moribund)): 120 days and 147 days and 162 days and 196 days
- Days Post Implant (survival) ([1]; cilengitide bolus 4 mg/kg i.p. 4 hours pre-irradiation (Rt 25 Gy) plus 7 daily boluses, Healthy/Alive animals not dead at day shown): 238 days and 254 days
- Days Post Implant (survival) ([1]; cilengitide bolus 4 mg/kg i.p. 8 hours pre-irradiation (Rt 25 Gy) plus 7 daily boluses, Healthy/Alive animals not dead at day shown): 287 days and 257 days
- animals healthy, days post tumor injection ([1]; t-4 and t-8 h groups, cilengitide 4 mg/kg plus 25 Gy): > 230 days
- EC50 [2]: 0.2 nM
- EC50 (NSCLC (A549)): 6 nM
- median Overall Survival (mOS) ([3]; 500 mg arm, i.v. 2x/week): 6.5 mths
- tumor control, dose comparison ([3]; 2000 mg 2x/week versus 500 mg, not statistically significant): trend towards better tumor control
- 12 mth overall survival (OS) rate ([3]; 2000 mg arm, i.v. 2x/week): 37.5%
- median Overall Survival (mOS) ([3]; 2000 mg arm, i.v. 2x/week): 9.9 mths
- Treatment related NCI CTC grade 3 adverse events ([3]; at 500 mg, each in 1 patient): elevated liver enzymes; also recorded: arthralgia/myalgia
- Treatment related NCI CTC grade 3 adverse events ([3]; at 2000 mg, in 1 patient): weight increase/edema
- grade 4 therapy related AEs ([3]; both arms): No grade 4 therapy related AEs
- pts who received 12 or more cycles of therapy ([3]; both arms, 10 pts (n=4 with 500 mg, n=6 with 2000 mg), 1 cycle=4 weeks): 12.3%
- pts still progression-free and on treatment ([3]; both arms, six pts, at time abstract was issued): 7.4%
- cerebral hemorrhage ([3]; possibly related either to the drug or to the disease): One CTC grade 2 cerebral hemorrhage
- single agent activity ([3]; recurrent glioblastoma): advantageous single agent activity
- tolerability ([3]; single agent therapy at two dose levels): tolerated well
- MTD in humans (various brain tumors; human, in vivo): no known MTD
- tolerability (various brain tumors; human, in vivo): very well tolerated
- response (various brain tumors; in some of the GBM patients): an indication of response was seen
- haematological grade 3 and 4 toxicity: neutropenia ([4]; Cilengitide 500 mg plus TMZ/RT, 5/52): 9.6%
- Treatment related non-hematologic grade 3 toxicities, patients ([4]; Cilengitide 500 mg plus TMZ/RT, n=3/52): 5.7%
- PFS-6 rate ([4]; Cilengitide 500 mg plus TMZ/RT, subgroup with methylated MGMT promoter (23/52)): 91%
- tolerability ([4]; combination of Cilengitide and TMZ/RT): well tolerated
- other adverse event ([4]; one patient with a history of sigmoid diverticulosis): sigmoid perforation (grade 2)
